For data set [1], the system named is Candida albicans A-26. Briefly: Agar dilution method, MIC. It is filed as cell-based. The procedure: (§1) Tables 10 and 11 give the results of the testing in vitro of the compounds of Examples 3 and 4 by agar-plate disc-diffusion methods. In Table 10 activity is measured by the size (diameter in mm) of the observed zone of inhibition of the microorganism produced by the test compound. In Table 11, activity is measured by the minimal inhibitory concentration (MIC) of the substance (μg/disc) required to inhibit growth of the test organism. Table 12 gives the results of the testing in vitro of the p-(n-octyloxy)benzoyl derivative of A30912A nucleus [Formula III, R^1 is p-(n-octyloxy)benzoyl] against five strains of Candida albicans by the agar dilution method. In Table 12 activity is measured by the minimal inhibitory concentration (MIC) of the substance (μg/ml) required to inhibit the test organism.
A general note: In agar dilution the substance is mixed into plates at graded concentrations.

Another data set deals with Candida albicans SBH16. The data set is described as follows: Agar dilution method, MIC. It counts as cell-based. The procedure: as §1
The test system of the next data set is Candida albicans SBH28. Briefly: Agar dilution method, MIC. It is filed as cell-based. The procedure: as §1
For the next data set, the system named is Candida albicans SBH29. Briefly: Agar dilution method, MIC. It is filed as cell-based. The procedure: as §1
For a further data set, the system named is Candida albicans SBH31. Briefly: Agar dilution method, MIC. It is filed as cell-based. The procedure: as §1
The test system of the next data set is pathogenic fungi. The data set is described as follows: Antifungal activity, standard biological test procedures. It counts as cell-based. The following applies: cyclic nucleus lacking the linoleoyl side chain. From the text:
The compounds of Formula III inhibit the growth of pathogenic fungi as evidenced by standard biological test procedures. The compounds are useful, therefore, for controlling the growth of fungi on environmental surfaces (as an antiseptic) or in treating infections caused by fungi. […] Thus, the compounds are particularly useful in treating infections caused by strains of C. albicans (candidosis). The compounds of Formula III have also shown activity in vitro in agar-plate disc diffusion tests against Trichophyton mentagrophytes, a dermatophytic organism. Activity has also been found in in vitro agar-plate disc-diffusion tests against Saccharomyces pastorianus, and Neurospora crassa. Certain compounds (as shown in Example 6, Table 9) give significant blood levels upon oral administration in mice.

The test system of data set [2] is Saccharomyces pastoranius X-52. The data set is described as follows: Agar plate disc diffusion test, zone of inhibition. It is filed as cell-based, Saccharomyces pastorianus. The procedure: as §1
(§2) ^(a) Compounds were tested as suspension in methanol. The compounds
(§3) were tested at a concentration of 1 mg/ml. by dipping a 7mm disc into the
(§4) suspension and placing it on the agar surface. Incubation: 24-48 hours at
(§5) *Measurable zone of inhibition with regrowth of organism around disc.
(In general: A growth-free zone around the sample is the usual read-out of agar diffusion tests.)

For data set [3], the system named is Candida albicans A-26. The data set is described as follows: Agar plate disc diffusion test, zone of inhibition. It is filed as cell-based. The following applies: 1 mg/ml suspension in methanol, 7mm disc; 24-48 hours at 25-37° C. The procedure:
as §1, §2, §3, §4, §5

Another data set concerns Neurospora crassa 846. Briefly: Agar plate disc diffusion test, zone of inhibition. It is filed as cell-based. The procedure: as §1, §2, §3, §4, §5
Data set [4] deals with Trichophyton mentagraphytes A-23. The data set is described as follows: Agar plate disc diffusion test, zone of inhibition. It counts as cell-based, Trichophyton mentagrophytes. The procedure:
as §1, §2, §3, §4, §5

Data set [5] in a line: Blood levels after oral administration in mice. Conditions: mouse, 416 mg/kg.
Description: In this test, mice are gavaged with a dose of 416 mg/kg of the test compound suspended in 33% PEG 400-water. At time intervals, blood samples are taken from the orbital sinus and are assayed for antibiotic activity as follows: A 7 mm. disc containing 20 μl of whole blood is placed on agar seeded with Aspergillus montevidensis A35137. After 40 hours incubation at 30° C. zones of inhibition from the blood samples are compared to a standard obtained from the test compound, and the amount of compound in the blood sample is calculated.
The nature of data set [6]: Toxicity on intravenous administration to a dog. It is filed as in vivo. The following applies: 100 mg/kg per day for five days.
[7] abbreviates: X52, 1 mg/ml suspension in methanol, 7mm disc, 24-48 hours at 25-37° C., read-out: Size of Zone of Inhibition.
Where [8] appears, read: Neurospora crassa, 846, 1 mg/ml suspension in methanol, 7mm disc, 24-48 hours at 25-37° C., read-out: Size of Zone of Inhibition.
Where [9] appears, read: A23, 1 mg/ml suspension in methanol, 7mm disc, 24-48 hours at 25-37° C., read-out: Size of Zone of Inhibition.

Each structure is given as a SMILES string. Converted amounts (≈) assume the structure as drawn. Like-named read-outs stand apart in the source and are kept apart here. Starred links: 1 amine or outer side, 2 acyl side, 3 side chain; linkers in the order of their positions; H or OH if unused. Positions of bridges follow the written chain, without caps; N, C: chain ends. Non-standard residues stand in square brackets, D forms with d. Residues, ends and D or L forms follow the SMILES beside them. *: point of attachment. Orn(4R-OH,5R-OH) = O=C([C@H](C[C@@H](O)[C@@H](O)N[*:3])N[*:1])[*:2]; hTyr(3S-OH,4S-OH) = N[C@H](C(=O)O)[C@H](O)[C@@H](O)c1ccc(O)cc1; Pro(3S-OH,4S-Me) = C[C@H]1CN[C@H](C(=O)O)[C@H]1O; Benzoyl(4-octyloxy) = CCCCCCCCOc1ccc(C(=O)*)cc1; X2 = CCCCCCCCCCCCCCS(=O)(=O)c1ccc(C(=O)*)cc1; X5 = CCCCCCCCCCCCS(=O)(=O)c1ccc(C(=O)*)cc1; X4 = CCCCCCCCCCS(=O)(=O)c1ccc(C(=O)*)cc1; X3 = CCCCCCCCCCCCCCSc1ccc(C(=O)*)cc1; X1 = CCCCCCCCCCCCSc1ccc(C(=O)*)cc1; Hyp = O=C(O)[C@@H]1C[C@@H](O)CN1; X8 = CCCCCCCCCOc1ccc(C(=O)*)cc1

The values that follow come from patent publication US4293489A, “Derivatives of A-30912A nucleus” (Eli Lilly and Company, priority 1980, dated 1981).

As for `CCCCCCCCCOc1ccc(C(=O)N[C@H]2C[C@@H](O)[C@@H](O)NC(=O)[C@@H]3[C@@H](O)[C@@H](C)CN3C(=O)[C@H]([C@@H](C)O)NC(=O)[C@H]([C@H](O)[C@@H](O)c3ccc(O)cc3)NC(=O)[C@@H]3C[C@@H](O)CN3C(=O)[C@H]([C@@H](C)O)NC2=O)cc1` (X8-[Orn(4R-OH,5R-OH)]T[Hyp][hTyr(3S-OH,4S-OH)]T[Pro(3S-OH,4S-Me)]; lactam 1-C), the minimum inhibitory concentration (MIC) in the data set on Candida albicans A-26 [1] (A26), in the data set on Candida albicans SBH16 (SBH16), against Candida albicans SBH28 (SBH28), in the data set with Candida albicans SBH29 (SBH29) and against Candida albicans SBH31 (SBH31) was 0.312 µg/mL (≈ 0.299 µM) in each case.
`C[C@@H](O)[C@@H]1NC(=O)[C@H]([C@H](O)[C@@H](O)c2ccc(O)cc2)NC(=O)[C@@H]2C[C@@H](O)CN2C(=O)[C@H]([C@@H](C)O)NC(=O)[C@@H](N)C[C@@H](O)[C@@H](O)NC(=O)[C@@H]2[C@@H](O)[C@@H](C)CN2C1=O` [A-30912A nucleus] (H-[Orn(4R-OH,5R-OH)]T[Hyp][hTyr(3S-OH,4S-OH)]T[Pro(3S-OH,4S-Me)]; lactam 1-C): the antifungal activity entry with pathogenic fungi is “substantially devoid of antifungal activity”.
Take `CCCCCCCCOc1ccc(C(=O)N[C@H]2C[C@@H](O)[C@@H](O)NC(=O)[C@@H]3[C@@H](O)[C@@H](C)CN3C(=O)[C@H]([C@@H](C)O)NC(=O)[C@H]([C@H](O)[C@@H](O)c3ccc(O)cc3)NC(=O)[C@@H]3C[C@@H](O)CN3C(=O)[C@H]([C@@H](C)O)NC2=O)cc1` [drawing 108] ({Benzoyl(4-octyloxy)}-[Orn(4R-OH,5R-OH)]T[Hyp][hTyr(3S-OH,4S-OH)]T[Pro(3S-OH,4S-Me)]; lactam 1-C): the zone of inhibition – broadly, the extent of the growth-free halo in a diffusion test – at 1000 µg/mL in data set [2] (setting [7]) was 18 mm; in the data set on Neurospora crassa 846 (Neurospora crassa, 846, read-out: Size of Zone of Inhibition) it was 23 mm. Further, the “Size of Zone of Inhibition” value in the data set with Candida albicans A-26 [3] is 28 mm.
For the compound `CCCCCCCCCCS(=O)(=O)c1ccc(C(=O)N[C@H]2C[C@@H](O)[C@@H](O)NC(=O)[C@@H]3[C@@H](O)[C@@H](C)CN3C(=O)[C@H]([C@@H](C)O)NC(=O)[C@H]([C@H](O)[C@@H](O)c3ccc(O)cc3)NC(=O)[C@@H]3C[C@@H](O)CN3C(=O)[C@H]([C@@H](C)O)NC2=O)cc1` [drawing 112] (X4-[Orn(4R-OH,5R-OH)]T[Hyp][hTyr(3S-OH,4S-OH)]T[Pro(3S-OH,4S-Me)]; lactam 1-C), the figures for the zone of inhibition at 1000 µg/mL (in data set [2] (setting [7]); in the data set with Neurospora crassa 846 (setting [8]); in data set [4] (setting [9])) were 16 mm, 31 mm and 32 mm, respectively. Further, in the data set with Candida albicans A-26 [3], the “Size of Zone of Inhibition” value was found to be 55 mm.
As to `CCCCCCCCCCCCS(=O)(=O)c1ccc(C(=O)N[C@H]2C[C@@H](O)[C@@H](O)NC(=O)[C@@H]3[C@@H](O)[C@@H](C)CN3C(=O)[C@H]([C@@H](C)O)NC(=O)[C@H]([C@H](O)[C@@H](O)c3ccc(O)cc3)NC(=O)[C@@H]3C[C@@H](O)CN3C(=O)[C@H]([C@@H](C)O)NC2=O)cc1` [drawing 113] (X5-[Orn(4R-OH,5R-OH)]T[Hyp][hTyr(3S-OH,4S-OH)]T[Pro(3S-OH,4S-Me)]; lactam 1-C), in the data set on Candida albicans A-26 [3], the “Size of Zone of Inhibition” value stood at 48 mm. The values for the zone of inhibition at 1000 µg/mL (with Neurospora crassa 846 (setting [8]); in data set [4] (setting [9])) were 37 mm and 26 mm, respectively.
`CCCCCCCCCCCCCCS(=O)(=O)c1ccc(C(=O)N[C@H]2C[C@@H](O)[C@@H](O)NC(=O)[C@@H]3[C@@H](O)[C@@H](C)CN3C(=O)[C@H]([C@@H](C)O)NC(=O)[C@H]([C@H](O)[C@@H](O)c3ccc(O)cc3)NC(=O)[C@@H]3C[C@@H](O)CN3C(=O)[C@H]([C@@H](C)O)NC2=O)cc1` [drawing 114] (X2-[Orn(4R-OH,5R-OH)]T[Hyp][hTyr(3S-OH,4S-OH)]T[Pro(3S-OH,4S-Me)]; lactam 1-C): the zone of inhibition at 1000 µg/mL was found to be 23 mm in data set [2] (X52, read-out: Size of Zone of Inhibition); 29 mm in the data set on Neurospora crassa 846 (setting [8]); 23 mm in data set [4] (A23, read-out: Size of Zone of Inhibition). Moreover, in the data set on Candida albicans A-26 [3], the “Size of Zone of Inhibition” value stood at 30 mm.
In the case of `CCCCCCCCCCCCSc1ccc(C(=O)N[C@H]2C[C@@H](O)[C@@H](O)NC(=O)[C@@H]3[C@@H](O)[C@@H](C)CN3C(=O)[C@H]([C@@H](C)O)NC(=O)[C@H]([C@H](O)[C@@H](O)c3ccc(O)cc3)NC(=O)[C@@H]3C[C@@H](O)CN3C(=O)[C@H]([C@@H](C)O)NC2=O)cc1` [drawing 149] (X1-[Orn(4R-OH,5R-OH)]T[Hyp][hTyr(3S-OH,4S-OH)]T[Pro(3S-OH,4S-Me)]; lactam 1-C), the MIC with Candida albicans A-26 [1] (A26), with Candida albicans SBH16 (SBH16), against Candida albicans SBH28 (SBH28), with Candida albicans SBH29 (SBH29) and in the data set with Candida albicans SBH31 (SBH31) was 0.625 µg/mL (≈ 0.567 µM) each time.
In the case of `CCCCCCCCCCCCCCSc1ccc(C(=O)N[C@H]2C[C@@H](O)[C@@H](O)NC(=O)[C@@H]3[C@@H](O)[C@@H](C)CN3C(=O)[C@H]([C@@H](C)O)NC(=O)[C@H]([C@H](O)[C@@H](O)c3ccc(O)cc3)NC(=O)[C@@H]3C[C@@H](O)CN3C(=O)[C@H]([C@@H](C)O)NC2=O)cc1` [drawing 150] (X3-[Orn(4R-OH,5R-OH)]T[Hyp][hTyr(3S-OH,4S-OH)]T[Pro(3S-OH,4S-Me)]; lactam 1-C), the MIC (commonly the lowest concentration that inhibits growth of the organism) in the data set with Candida albicans A-26 [1] (A26, strain A-26, agar dilution, read-out: MIC) was found to be 2.5 µg/mL (≈ 2.21 µM); in the data set on Candida albicans SBH16 (strain SBH16, agar dilution, read-out: MIC) it was 2.5 µg/mL (≈ 2.21 µM); in the data set with Candida albicans SBH28 (strain SBH28, agar dilution, read-out: MIC), 2.5 µg/mL (≈ 2.21 µM); with Candida albicans SBH29 (strain SBH29, agar dilution, read-out: MIC), 2.5 µg/mL (≈ 2.21 µM); with Candida albicans SBH31 (strain SBH31, agar dilution, read-out: MIC), 2.5 µg/mL (≈ 2.21 µM).
With `CCCCCCCCOc1ccc(C(=O)N[C@H]2C[C@@H](O)[C@@H](O)NC(=O)[C@@H]3[C@@H](O)[C@@H](C)CN3C(=O)[C@H]([C@@H](C)O)NC(=O)[C@H]([C@H](O)[C@@H](O)c3ccc(O)cc3)NC(=O)[C@@H]3C[C@@H](O)CN3C(=O)[C@H]([C@@H](C)O)NC2=O)cc1` [drawing 181] ({Benzoyl(4-octyloxy)}-[Orn(4R-OH,5R-OH)]T[Hyp][hTyr(3S-OH,4S-OH)]T[Pro(3S-OH,4S-Me)]; lactam 1-C), the maximum concentration (Cmax) (as a rule, the peak of the concentration-time curve) in data set [5] came out at 23000 ng/mL.
Turning to `CCCCCCCCOc1ccc(C(=O)N[C@H]2C[C@@H](O)[C@@H](O)NC(=O)[C@@H]3[C@@H](O)[C@@H](C)CN3C(=O)[C@H]([C@@H](C)O)NC(=O)[C@H]([C@H](O)[C@@H](O)c3ccc(O)cc3)NC(=O)[C@@H]3C[C@@H](O)CN3C(=O)[C@H]([C@@H](C)O)NC2=O)cc1` [p-(n-octyloxy)benzoyl derivative of A-30912A nucleus] ({Benzoyl(4-octyloxy)}-[Orn(4R-OH,5R-OH)]T[Hyp][hTyr(3S-OH,4S-OH)]T[Pro(3S-OH,4S-Me)]; lactam 1-C), in [6], the SGPT levels result is “increased SGPT levels were observed” and the “outward signs of toxicity” value is on record as “no outward signs of toxicity”.
